Measurements reported in patent US20240009304A1, “USE OF NGF ANTIBODY IN CIPN PAIN” (Dartsbio Pharmaceuticals Ltd., priority 2020, published 2024).
Several values for one entry are separate records, joined by “and”; a condition that tells them apart may be missing. Equal values may be shown once.

Experiments:
Assay type in all cases: in vivo
[1] = tested on: paclitaxel-induced neuropathic pain model in SD rats; test: von Frey mechanical allodynia, paclitaxel-induced neuropathic pain model; details: for Mean value of mechanical paw withdrawal threshold: s.c., D-3/D3/D9
Protocol: (§1) All female SD rats were measured on day −5 (D-5) and day −4 (D-4) for basal values of von Frey mechanical allodynia and acetone cold allodynia (the day on formally establishing the model with paclitaxel administration was recorded as DO). SD rats were randomly divided into 5 groups according to body weight, which were blank control group, vehicle control (Vehicle control), s.c., D-3/D3/D9 group, DS002 0.1 mg/kg, s.c., D-3/D3/D9 group, DS002 0.5 mg/kg, s.c., D-3/D3/D9 group, DS002 2.5 mg/kg, s.c., D-3/D3/D9 group, respectively. Except for the blank control group, the other groups of animals were injected intraperitoneally with a chemotherapeutic agent solution on DO, D2, D4 and D6, respectively, to establish a chemotherapeutic agent-induced neuropathic pain model in SD rats. Wherein, von Frey is a stimulating material used in the measurement method of mechanical stimulation pain threshold; acetone is a stimulating substance used in the measurement method of cold pain threshold.
(§2) Except for the blank control group, the other four groups were administered subcutaneously with DS002 on D-3, D3 and D9, respectively, and the von Frey echanical allodynia and acetone cold allodynia were measured on D7, D14 and D8, D15, respectively. The mechanical paw withdrawal threshold and the score and frequency of acetone-induced foot withdrawal behavior at the corresponding time point were recorded (for testing and calculation methods, see Yoon et al., pain, 59(3), 369-376. & Flatters et al., pain, 2004, 109 (1-2):150-161).
(§3) The above experimental method was used, except for the blank control group, the other groups of animals were injected intraperitoneally with a chemotherapeutic agent solution (4 mg/kg) on DO, D2, D4 and D6, respectively, to establish a paclitaxel-induced neuropathic pain model in SD rats, namely the CIPN pain model.

[2] = tested on: cisplatin-induced neuropathic pain model in SD rats; test: von Frey mechanical allodynia, cisplatin-induced neuropathic pain model; details: for Mean value of mechanical paw withdrawal threshold: s.c.
Protocol: as §1, §2
(§4) With reference to the above-mentioned experimental method and Example 1, except for the blank control group, the animals of other groups were injected with a cisplatin solution (4 mg/kg) in the tail veins on DO and D6, respectively, to establish a cisplatin-induced neuropathic pain model in SD rats, namely the CIPN pain model.
(§5) The basal values of the mechanical allodynia and cold allodynia were measured on day 5 (D-5) and day 4 (D-4) before modeling. On day 3 (D-3), the normal rats were divided into 4 groups by random block method and administered according to their body weight. The average weight of animals in each group after grouping was about 250 g. As for the animals of blank control group, vehicle control, s.c., D-3/D3/D9/D16 group, test sample DS002, 0.02 mg/kg, s.c., D-3/D3/D9/D16 group and test sample DS002, 0.5 mg/kg, s.c., D-3/D3/D9/D16 group, the basal values of mechanical paw withdrawal threshold were 26.00±0.00 g, 23.95±1.63 g, 23.50±1.68 g and 22.77±1.71 g, respectively; the basal values of acetone-induced foot withdrawal behavior total score were 0.50±0.34, 0.55±0.31, 0.27±0.19 and 0.55±0.28, respectively; the basal values of the response frequency were 6.00±4.27%, 7.27±4.07%, 3.64±2.44% and […], respectively.

[3] = tested on: vincristine-induced neuropathic pain model in SD rats; test: acetone cold allodynia, vincristine-induced neuropathic pain model; details: s.c.
Protocol: as §1, §2
(§6) With reference to the above-mentioned experimental method and Example 1, except for the blank control group, the other groups of animals were injected intraperitoneally with a vincristine solution (0.1 mg/kg) from DO to D9, respectively, to establish a vincristine-induced neuropathic pain model in SD rats, namely, the CIPN pain model.

[4] = tested on: cisplatin-induced neuropathic pain model in SD rats; test: acetone cold allodynia, cisplatin-induced neuropathic pain model; details: for Mean value of response frequency of cold allodynia / Mean value of acetone-induced foot withdrawal behavior total score: s.c.
Protocol: as §2, §4, §5

[5] = tested on: vincristine-induced neuropathic pain model in SD rats; test: von Frey mechanical allodynia, vincristine-induced neuropathic pain model; details: for Mean value of mechanical paw withdrawal threshold: s.c.
Protocol: as §1, §2, §6

[6] = tested on: paclitaxel-induced neuropathic pain model in SD rats; test: acetone cold allodynia, paclitaxel-induced neuropathic pain model; details: s.c.
Protocol: as §1, §2, §3

[7] = 0.1 mg/kg, D-3/D3/D9, D-4 basal value before administration
[8] = 0.5 mg/kg, D-3/D3/D9, D-4 basal value before administration
[9] = 2.5 mg/kg, D-3/D3/D9, D-4 basal value before administration
[10] = 0.5 mg/kg, D-3/D3/D9/D16, D22, listed as D5002

DS002: humanized recombinant monoclonal antibody targeting nerve growth factor, IgG1 subtype, kappa light chain; heavy/light chain SEQ ID NO:3 and 4
Mean value of mechanical paw withdrawal threshold ([1]; 0.1 mg/kg, D7, paclitaxel model): 8.90 ± 1.20 g
Mean value of mechanical paw withdrawal threshold ([1]; 0.1 mg/kg, D14, paclitaxel model): 10.55 ± 1.04 g
Mean value of mechanical paw withdrawal threshold ([1]; 0.1 mg/kg, D-5 basal value before administration, paclitaxel model): 13.48 ± 1.03 g
Mean value of mechanical paw withdrawal threshold ([1]; 0.5 mg/kg, D7, paclitaxel model): 10.40 ± 1.33 g
Mean value of mechanical paw withdrawal threshold ([1]; 0.5 mg/kg, D14, paclitaxel model): 10.94 ± 1.16 g
Mean value of mechanical paw withdrawal threshold ([1]; 0.5 mg/kg, D-5 basal value before administration, paclitaxel model): 13.25 ± 0.98 g
Mean value of mechanical paw withdrawal threshold ([1]; 2.5 mg/kg, D7, paclitaxel model): 7.74 ± 1.19 g
Mean value of mechanical paw withdrawal threshold ([1]; 2.5 mg/kg, D14, paclitaxel model): 12.30 ± 0.94 g
Mean value of mechanical paw withdrawal threshold ([1]; 2.5 mg/kg, D-5 basal value before administration, paclitaxel model): 13.50 ± 0.82 g
pain threshold ([1]; 0.1-2.5 mg/kg subcutaneously every 6 days for 3 consecutive times, paclitaxel-induced rat neuropathic pain model, summary in words): preventatively increased
mechanical paw withdrawal threshold of rats compared with the Vehicle control ([1]; paclitaxel model, summary in words): significantly increased
Mean value of mechanical paw withdrawal threshold ([2]; 0.02 mg/kg, D-3/D3/D9/D16, D7): 8.87 ± 1.98 g
Mean value of mechanical paw withdrawal threshold ([2]; 0.02 mg/kg, D-3/D3/D9/D16, D14): 7.22 ± 0.77 g
Mean value of mechanical paw withdrawal threshold ([2]; 0.02 mg/kg, D-3/D3/D9/D16, D21): 14.22 ± 2.63 g
Mean value of mechanical paw withdrawal threshold ([2]; 0.02 mg/kg, D-3/D3/D9/D16, D-5 basal value before administration): 23.50 ± 1.68 g
Mean value of mechanical paw withdrawal threshold ([2]; 0.5 mg/kg, D-3/D3/D9/D16, D7): 7.62 ± 1.18 g
Mean value of mechanical paw withdrawal threshold ([2]; 0.5 mg/kg, D-3/D3/D9/D16, D14): 10.73 ± 1.60 g
Mean value of mechanical paw withdrawal threshold ([2]; 0.5 mg/kg, D-3/D3/D9/D16, D21): 16.37 ± 2.36 g
Mean value of mechanical paw withdrawal threshold ([2]; 0.5 mg/kg, D-3/D3/D9/D16, D-5 basal value before administration): 22.77 ± 1.71 g
mechanical paw withdrawal threshold of rats compared with the Vehicle control ([2]; summary in words): significantly increased
Mean value of response frequency of cold allodynia ([3]; 0.1 mg/kg, D-3/D3/D9, D8): 58.00±6.96% and 58.00%
Mean value of acetone-induced foot withdrawal behavior total score ([3]; 0.1 mg/kg, D-3/D3/D9, D15): 3.00
Mean value of response frequency of cold allodynia ([3]; 0.1 mg/kg, D-3/D3/D9, D15): 42.00%
Mean value of acetone-induced foot withdrawal behavior total score [3, 7]: 0.10
Mean value of response frequency of cold allodynia [3, 7]: 2.00%
Mean value of response frequency of cold allodynia ([3]; 0.5 mg/kg, D-3/D3/D9, D8): 44.00±7.77% and 44.00%
Mean value of acetone-induced foot withdrawal behavior total score ([3]; 0.5 mg/kg, D-3/D3/D9, D15): 2.80
Mean value of response frequency of cold allodynia ([3]; 0.5 mg/kg, D-3/D3/D9, D15): 34.00%
Mean value of acetone-induced foot withdrawal behavior total score [3, 8]: 0.30
Mean value of response frequency of cold allodynia [3, 8]: 4.00%
Mean value of response frequency of cold allodynia ([3]; 2.5 mg/kg, D-3/D3/D9, D8): 44.00±4.99% and 44.00%
Mean value of acetone-induced foot withdrawal behavior total score ([3]; 2.5 mg/kg, D-3/D3/D9, D15): 1.80
Mean value of response frequency of cold allodynia ([3]; 2.5 mg/kg, D-3/D3/D9, D15): 24.00%
Mean value of acetone-induced foot withdrawal behavior total score [3, 9]: 0.30
Mean value of response frequency of cold allodynia [3, 9]: 4.00%
Mean value of response frequency of cold allodynia ([4]; 0.02 mg/kg, D-3/D3/D9/D16, D8): 7.27±4.07% and 7.27%
Mean value of response frequency of cold allodynia ([4]; 0.02 mg/kg, D-3/D3/D9/D16, D15): 16.36±5.92% and 16.36%
Mean value of response frequency of cold allodynia ([4]; 0.02 mg/kg, D-3/D3/D9/D16, D22): 9.09±4.15% and 9.09%
Mean value of response frequency of cold allodynia ([4]; 0.02 mg/kg, D-3/D3/D9/D16, D-4 basal value before administration): 3.64±2.44% and 3.64%
Mean value of response frequency of cold allodynia ([4]; 0.5 mg/kg, D-3/D3/D9/D16, D8): 7.27±4.07% and 7.27%
Mean value of response frequency of cold allodynia ([4]; 0.5 mg/kg, D-3/D3/D9/D16, D15): 7.27±4.07% and 7.27%
Mean value of acetone-induced foot withdrawal behavior total score ([4]; 0.5 mg/kg, D-3/D3/D9/D16, D22): 0.73
Mean value of response frequency of cold allodynia ([4]; 0.5 mg/kg, D-3/D3/D9/D16, D22): 10.91%
Mean value of acetone-induced foot withdrawal behavior total score [4, 10]: 0.73±0.30
Mean value of response frequency of cold allodynia [4, 10]: 10.91±4.15%
Mean value of response frequency of cold allodynia ([4]; 0.5 mg/kg, D-3/D3/D9/D16, D-4 basal value before administration): 5.45±2.82% and 5.45%
cold pain threshold of the rats compared with the vehicle control ([4]; summary in words): not significantly improved
Mean value of mechanical paw withdrawal threshold ([5]; 0.1 mg/kg, D-3/D3/D9, D7): 7.02 ± 1.05 g
Mean value of mechanical paw withdrawal threshold ([5]; 0.1 mg/kg, D-3/D3/D9, D14): 9.76 ± 1.10 g
Mean value of mechanical paw withdrawal threshold ([5]; 0.1 mg/kg, D-3/D3/D9, D-5 basal value before administration): 15.00 ± 0.00 g
Mean value of mechanical paw withdrawal threshold ([5]; 0.5 mg/kg, D-3/D3/D9, D7): 8.20 ± 1.78 g
Mean value of mechanical paw withdrawal threshold ([5]; 0.5 mg/kg, D-3/D3/D9, D14): 11.00 ± 0.94 g
Mean value of mechanical paw withdrawal threshold ([5]; 0.5 mg/kg, D-3/D3/D9, D-5 basal value before administration): 15.00 ± 0.00 g
Mean value of mechanical paw withdrawal threshold ([5]; 2.5 mg/kg, D-3/D3/D9, D7): 8.43 ± 0.92 g
Mean value of mechanical paw withdrawal threshold ([5]; 2.5 mg/kg, D-3/D3/D9, D14): 13.31 ± 0.76 g
Mean value of mechanical paw withdrawal threshold ([5]; 2.5 mg/kg, D-3/D3/D9, D-5 basal value before administration): 14.16 ± 0.60 g
mechanical paw withdrawal threshold of rats compared with the Vehicle control ([5]; summary in words): significantly increased
Mean value of acetone-induced foot withdrawal response score ([6]; 0.1 mg/kg, D-3/D3/D9, D8): 3.70
Mean value of response frequency of cold allodynia ([6]; 0.1 mg/kg, D-3/D3/D9, D8): 63.50%
Mean value of acetone-induced foot withdrawal response score ([6]; 0.1 mg/kg, D-3/D3/D9, D15): 1.80
Mean value of response frequency of cold allodynia ([6]; 0.1 mg/kg, D-3/D3/D9, D15): 33.40%
Mean value of acetone-induced foot withdrawal response score [6, 7]: 0.60
Mean value of response frequency of cold allodynia [6, 7]: 13.40%
Mean value of acetone-induced foot withdrawal response score ([6]; 0.5 mg/kg, D-3/D3/D9, D8): 2.50
Mean value of response frequency of cold allodynia ([6]; 0.5 mg/kg, D-3/D3/D9, D8): 50.10%
Mean value of acetone-induced foot withdrawal response score ([6]; 0.5 mg/kg, D-3/D3/D9, D15): 1.00
Mean value of response frequency of cold allodynia ([6]; 0.5 mg/kg, D-3/D3/D9, D15): 23.20%
Mean value of acetone-induced foot withdrawal response score [6, 8]: 0.50
Mean value of response frequency of cold allodynia [6, 8]: 13.30%
Mean value of acetone-induced foot withdrawal response score ([6]; 2.5 mg/kg, D-3/D3/D9, D8): 3.30
Mean value of response frequency of cold allodynia ([6]; 2.5 mg/kg, D-3/D3/D9, D8): 70.0%
Mean value of acetone-induced foot withdrawal response score ([6]; 2.5 mg/kg, D-3/D3/D9, D15): 0.70
Mean value of response frequency of cold allodynia ([6]; 2.5 mg/kg, D-3/D3/D9, D15): 19.90%
Mean value of acetone-induced foot withdrawal response score [6, 9]: 0.90
Mean value of response frequency of cold allodynia [6, 9]: 19.90%
